Experimental data reported in ChEMBL document CHEMBL3792297, “Studies on phenothiazines: New microtubule-interacting compounds with phenothiazine A-ring as potent antineoplastic agents” (Bioorg Med Chem, 2016).

How the values were obtained:
[1] = Growth inhibition of human SF268 cells at 10 uM after 48 hrs by SRB assay relative to control; assay type: functional; settings: SF-268, 48 h, read-out: GI
A549 = experiment: Growth inhibition of human A549 cells at 10 uM after 48 hrs by SRB assay relative to control; assay type: functional; settings: A549, 48 h, read-out: GI
[2] = Growth inhibition of human HOP92 cells at 10 uM after 48 hrs by SRB assay relative to control; assay type: functional; settings: HOP-92, 48 h, read-out: GI
KM12 = experiment: Growth inhibition of human KM12 cells at 10 uM after 48 hrs by SRB assay relative to control; assay type: functional; settings: KM12, 48 h, read-out: GI
[3] = Growth inhibition of human Hs 578T cells at 10 uM after 48 hrs by SRB assay relative to control; assay type: functional; settings: read-out: GI
[4] = Growth inhibition of human BT549 cells at 10 uM after 48 hrs by SRB assay relative to control; assay type: functional; settings: BT-549, 48 h, read-out: GI
[5] = Growth inhibition of human MOLT4 cells at 10 uM after 48 hrs by SRB assay relative to control; assay type: functional; settings: MOLT-4, 48 h, read-out: GI
[6] = Growth inhibition of human SNB19 cells at 10 uM after 48 hrs by SRB assay relative to control; assay type: functional; settings: SNB-19, 48 h, read-out: GI
ACHN = experiment: Growth inhibition of human ACHN cells at 10 uM after 48 hrs by SRB assay relative to control; assay type: functional; settings: read-out: GI
[7] = Growth inhibition of human OVCAR5 cells at 10 uM after 48 hrs by SRB assay relative to control; assay type: functional; settings: OVCAR-5, 48 h, read-out: GI
[8] = Growth inhibition of human OVCAR4 cells at 10 uM after 48 hrs by SRB assay relative to control; assay type: functional; settings: OVCAR-4, 48 h, read-out: GI
[9] = Growth inhibition of human SF295 cells at 10 uM after 48 hrs by SRB assay relative to control; assay type: functional; settings: SF-295, 48 h, read-out: GI
[10] = Growth inhibition of human SNB75 cells at 10 uM after 48 hrs by SRB assay relative to control; assay type: functional; settings: SNB-75, 48 h, read-out: GI
[11] = Growth inhibition of human UACC257 cells at 10 uM after 48 hrs by SRB assay relative to control; assay type: functional; settings: UACC-257, 48 h, read-out: GI
MDA-MB-231 = experiment: Growth inhibition of human MDA-MB-231 cells at 10 uM after 48 hrs by SRB assay relative to control; assay type: functional; settings: MDA-MB-231, 48 h, read-out: GI
SN12C = experiment: Growth inhibition of human SN12C cells at 10 uM after 48 hrs by SRB assay relative to control; assay type: functional; settings: read-out: GI
K562 = experiment: Growth inhibition of human K562 cells at 10 uM after 48 hrs by SRB assay relative to control; assay type: functional; settings: K562, 48 h, read-out: GI
[12] = Growth inhibition of human DU145 cells at 10 uM after 48 hrs by SRB assay relative to control; assay type: functional; settings: DU-145, 48 h, read-out: GI
[13] = Growth inhibition of human Caki1 cells at 10 uM after 48 hrs by SRB assay relative to control; assay type: functional; settings: CAKI-1, 48 h, read-out: GI
T47D = experiment: Growth inhibition of human T47D cells at 10 uM after 48 hrs by SRB assay relative to control; assay type: functional; settings: read-out: GI
[14] = Growth inhibition of human HCT15 cells at 10 uM after 48 hrs by SRB assay relative to control; assay type: functional; settings: HCT-15, 48 h, read-out: GI
[15] = Growth inhibition of human HCT116 cells at 10 uM after 48 hrs by SRB assay relative to control; assay type: functional; settings: HCT-116, 48 h, read-out: GI
[16] = Growth inhibition of human TK10 cells at 10 uM after 48 hrs by SRB assay relative to control; assay type: functional; settings: TK-10, 48 h, read-out: GI
[17] = Growth inhibition of human SW620 cells at 10 uM after 48 hrs by SRB assay relative to control; assay type: functional; settings: SW-620, 48 h, read-out: GI
[18] = Growth inhibition of human UACC62 cells at 10 uM after 48 hrs by SRB assay relative to control; assay type: functional; settings: UACC-62, 48 h, read-out: GI
NCI-H23 = experiment: Growth inhibition of human NCI-H23 cells at 10 uM after 48 hrs by SRB assay relative to control; assay type: functional; settings: NCI-H23, 48 h, read-out: GI
[19] = Growth inhibition of human RPMI8226 cells at 10 uM after 48 hrs by SRB assay relative to control; assay type: functional; settings: RPMI-8226, 48 h, read-out: GI
M14 = experiment: Growth inhibition of human M14 cells at 10 uM after 48 hrs by SRB assay relative to control; assay type: functional; settings: M14, 48 h, read-out: GI
A498 = experiment: Growth inhibition of human A498 cells at 10 uM after 48 hrs by SRB assay relative to control; assay type: functional; settings: A498, 48 h, read-out: GI
[20] = Growth inhibition of human NCI-ADR-RES cells at 10 uM after 48 hrs by SRB assay relative to control; assay type: functional; settings: read-out: GI
[21] = Growth inhibition of human HL-60(TB) cells at 10 uM after 48 hrs by SRB assay relative to control; assay type: functional; settings: HL-60, 48 h, read-out: GI
[22] = Growth inhibition of human COLO205 cells at 10 uM after 48 hrs by SRB assay relative to control; assay type: functional; settings: COLO 205, 48 h, read-out: GI
[23] = Growth inhibition of human HCC2998 cells at 10 uM after 48 hrs by SRB assay relative to control; assay type: functional; settings: HCC 2998, 48 h, read-out: GI
Malme-3M = experiment: Growth inhibition of human MALME-3M cells at 10 uM after 48 hrs by SRB assay relative to control; assay type: functional; settings: read-out: GI
MCF7 = experiment: Growth inhibition of human MCF7 cells at 10 uM after 48 hrs by SRB assay relative to control; assay type: functional; settings: MCF7, 48 h, read-out: GI
SK-MEL-2 = experiment: Growth inhibition of human SK-MEL-2 cells at 10 uM after 48 hrs by SRB assay relative to control; assay type: functional; settings: SK-MEL-2, 48 h, read-out: GI
[24] = Growth inhibition of human RXF393 cells at 10 uM after 48 hrs by SRB assay relative to control; assay type: functional; settings: RXF 393, 48 h, read-out: GI
Ovis aries = organism: Ovis aries; experiment: Inhibition of sheep brain tubulin polymerization at 100 uM by DAPI staining-based fluorimetric method
[25] = Growth inhibition of human IGROV1 cells at 10 uM after 48 hrs by SRB assay relative to control; assay type: functional; settings: IGROV-1, 48 h, read-out: GI
U-251 = experiment: Growth inhibition of human U251 cells at 10 uM after 48 hrs by SRB assay relative to control; assay type: functional; settings: U-251, 48 h, read-out: GI

| Compound | inhibition of growth at 10 µM [1] [%] | inhibition of growth at 10 µM (A549) [%] | inhibition of growth at 10 µM [2] [%] | inhibition of growth at 10 µM (KM12) [%] | inhibition of growth at 10 µM [3] [%] | inhibition of growth at 10 µM [4] [%] | inhibition of growth at 10 µM [5] [%] | inhibition of growth at 10 µM [6] [%] | inhibition of growth at 10 µM (ACHN) [%] | inhibition of growth at 10 µM [7] [%] | inhibition of growth at 10 µM [8] [%] | inhibition of growth at 10 µM [9] [%] | inhibition of growth at 10 µM [10] [%] | inhibition of growth at 10 µM [11] [%] | inhibition of growth at 10 µM (MDA-MB-231) [%] | inhibition of growth at 10 µM (SN12C) [%] | inhibition of growth at 10 µM (K562) [%] | inhibition of growth at 10 µM [12] [%] | inhibition of growth at 10 µM [13] [%] | inhibition of growth at 10 µM (T47D) [%] | also measured |
| --- | --- | --- | --- | --- | --- | --- | --- | --- | --- | --- | --- | --- | --- | --- | --- | --- | --- | --- | --- | --- | --- |
| O=C(c1ccc(F)c(Cl)c1)N1c2ccccc2Sc2ccccc21 | 33 | 34 | 63 | 60 | 21 | 42 | 56 | 23 | 0 | 13 | 20 | 36 | 31 | 39 | 39 | 1 | 79 | 10 | 47 | 39 | inhibition of growth at 10 µM [14]: 73%; inhibition of growth at 10 µM [15]: 69%; inhibition of growth at 10 µM [16]: 15%; inhibition of growth at 10 µM [17]: 66%; inhibition of growth at 10 µM [18]: 74%; inhibition of growth at 10 µM (NCI-H23): 21%; inhibition of growth at 10 µM [19]: 47%; inhibition of growth at 10 µM (M14): 47%; inhibition of growth at 10 µM (A498): 38%; inhibition of growth at 10 µM [20]: 60%; inhibition of growth at 10 µM [21]: 69%; inhibition of growth at 10 µM [22]: 55%; inhibition of growth at 10 µM [23]: 38%; inhibition of growth at 10 µM (Malme-3M): 36%; inhibition of growth at 10 µM (MCF7): 49%; inhibition of growth at 10 µM (SK-MEL-2): 35%; inhibition of growth at 10 µM [24]: 29%; inhibition (Ovis aries): 42%; inhibition of growth at 10 µM [25]: 29%; inhibition of growth at 10 µM (U-251): 61% |
| O=C(c1ccc(Cl)cc1Cl)N1c2ccccc2Sc2ccccc21 | 50 | 46 | 28 | 50 | 4 | 45 | 74 | 43 | 39 | 29 | 18 | 47 | 40 | 36 | 31 | 33 | 100 | 35 | 50 | 33 | inhibition of growth at 10 µM [14]: 70%; inhibition of growth at 10 µM [15]: 77%; inhibition of growth at 10 µM [16]: 27%; inhibition of growth at 10 µM [17]: 62%; inhibition of growth at 10 µM [18]: 57%; inhibition of growth at 10 µM (NCI-H23): 26%; inhibition of growth at 10 µM [19]: 45%; inhibition of growth at 10 µM (M14): 40%; inhibition of growth at 10 µM (A498): 31%; inhibition of growth at 10 µM [20]: 39%; inhibition of growth at 10 µM [21]: 64%; inhibition of growth at 10 µM [22]: 55%; inhibition of growth at 10 µM [23]: 35%; inhibition of growth at 10 µM (Malme-3M): 36%; inhibition of growth at 10 µM (MCF7): 48%; inhibition of growth at 10 µM (SK-MEL-2): 21%; inhibition of growth at 10 µM [24]: 30%; inhibition (Ovis aries): 44%; inhibition of growth at 10 µM [25]: 39%; inhibition of growth at 10 µM (U-251): 67% |
| COc1ccc(C(=O)N2c3ccccc3Sc3ccccc32)c(OC)c1 | 63 | 69 | 69 | 86 | 85 | 83 | 88 | 68 | 57 | 52 | 43 | 88 | 82 | 23 | 62 | 48 | 89 | 90 | 63 | 59 | inhibition of growth at 10 µM [14]: 81%; inhibition of growth at 10 µM [15]: 91%; inhibition of growth at 10 µM [16]: 44%; inhibition of growth at 10 µM [17]: 75%; inhibition of growth at 10 µM [18]: 86%; inhibition of growth at 10 µM (NCI-H23): 62%; inhibition of growth at 10 µM [19]: 84%; inhibition of growth at 10 µM (M14): 100%; inhibition of growth at 10 µM (A498): 95%; inhibition of growth at 10 µM [20]: 100%; inhibition of growth at 10 µM [21]: 99%; inhibition of growth at 10 µM [22]: 100%; inhibition of growth at 10 µM [23]: 87%; inhibition of growth at 10 µM (Malme-3M): 33%; inhibition of growth at 10 µM (MCF7): 80%; inhibition of growth at 10 µM (SK-MEL-2): 62%; inhibition of growth at 10 µM [24]: 100%; inhibition (Ovis aries): 53%; inhibition of growth at 10 µM [25]: 47%; inhibition of growth at 10 µM (U-251): 75% |
